For orientation: half-life means the time needed for the level to fall by half in the phase considered. Low readings indicate fast loss, high ones slow loss. A word on the EC50: it is the concentration that produces a half-maximal response.

Marks after values point to notes of the source that are not given here. Where a SMILES comes first, the peptide text is derived from it. Bridges are numbered along the chain shown (N, C = ends). Where no end group is shown, it is not given here. [ ]: non-standard residue; d: D form. Orn = NCCC[C@H](N)C(=O)O

Data on seven molecules can be found in patent publication US7414107B2, “Pharmacologically active peptide conjugates having a reduced tendency towards enzymatic hydrolysis” (priority 1998, dated 2008).

For one series, the target named is T1, leucine aminopeptidase (Sus scrofa, UniProt P28839).
T1 construct: purchased Sigma, UK type III-CP (catalogue number not given); host or cells: porcine kidney
T1 sequence (P28839 1-519): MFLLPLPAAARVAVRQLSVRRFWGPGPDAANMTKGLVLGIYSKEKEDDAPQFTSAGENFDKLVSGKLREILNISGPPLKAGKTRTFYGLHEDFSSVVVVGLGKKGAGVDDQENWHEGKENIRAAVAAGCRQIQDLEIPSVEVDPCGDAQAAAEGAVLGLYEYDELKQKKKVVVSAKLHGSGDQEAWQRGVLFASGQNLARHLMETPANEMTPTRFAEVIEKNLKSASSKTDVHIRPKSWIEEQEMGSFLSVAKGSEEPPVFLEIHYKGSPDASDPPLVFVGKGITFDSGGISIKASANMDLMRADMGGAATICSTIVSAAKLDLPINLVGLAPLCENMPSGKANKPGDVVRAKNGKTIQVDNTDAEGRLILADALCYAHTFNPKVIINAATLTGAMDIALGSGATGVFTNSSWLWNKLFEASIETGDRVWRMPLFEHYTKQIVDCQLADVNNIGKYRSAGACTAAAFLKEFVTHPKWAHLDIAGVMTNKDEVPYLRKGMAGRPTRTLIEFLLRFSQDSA
The series can be described thus: Hydrolysis kinetics in leucine aminopeptidase solution. The class given is in vitro ADME, porcine. The note with it: 50 mM phosphate buffer pH 7.4, 37° C., leucine aminopeptidase 25 U/ml; for half-life: pig. The method, then: (§1) Carboxypeptidase A (EC 3.4.17.1) type I from bovine pancreas, leucine aminopeptidase (EC 3.4.11.1) type III-CP from porcine kidney, α-chymotrypsin (EC […]) from bovine pancreas, and pepsin A (EC 3.4.23.1) from porcine stomach mucosa […] were obtained from Sigma, UK.
(§2) Gradient HPLC analysis of samples from in vitro kinetic measurements performed as described below was performed using a Hewlett Packard HP 1100 HPLC system consisting of a HP 1100 Binary Pump, a HPI 100 Autosampler, a HPI 100 Column Thermostat and a HP 1100 Variable Wavelength Detector. A Merck LiChroCART column (125×4 mm I.D.) and a LiChroCART precolumn (4×4 mm I.D.) packed with Lichrospher RP-18 (5 .μum particles) was used. The column was kept at 25° C. or 75° C. and the column effluent was measured by UV detection at 215 run. Separation of the peptide conjugates or the native peptides from degradation products and constituents of the reaction solutions was accomplished using gradient elution of the column with mixtures of mobile phase A (0.1 vol % TFA in water) and mobile phase B (0.085 vol % TFA in acetonitrile) at a flow rate of 1 ml/min.
(§3) The degradation of the peptide conjugate and the corresponding native peptide were studied at 37° C. in a 50 mM phosphate buffer solution at pH 7.4 containing leucine arninopeptidase (25 U/ml) or carboxypeptidase A (1 or 25 U/ml). Experiments were initiated by addition of an aliquot (100 μl) of a stock solution (1 mg/ml) of the peptide conjugate or the native peptide to 900 μl preheated enzyme solution giving a final concentration of ˜0.1 mg/ml (10^−5-10^−4M) of the peptide conjugate or the native peptide. The peptide/enzyme solution was kept at 37° C. using a SHT200D block heater from Stuart Scientific. At appropriate time intervals, samples of 100 μl were withdrawn from the peptide/enzyme solution, mixed thoroughly with 20 μl 25% TFA in acetonitrile in order to stop the enzymatic degradation process and analysed by HPLC as described above. Half-lives (t1/2) for the peptide conjugate and the corresponding native peptide in the enzyme solutions were calculated from plots of the natural logarithm to the concentration of the residual peptide (HPLC peak heights) against time using the formula t/2=1/kobs×ln(2), where kobs is the apparent first-order rate constant for the observed degradation.

The next series has as its target T2, carboxypeptidase A (Bos taurus, UniProt P00730).
T2 construct: purchased Sigma, UK type I (catalogue number not given); host or cells: bovine pancreas
T2 sequence (P00730 111-419): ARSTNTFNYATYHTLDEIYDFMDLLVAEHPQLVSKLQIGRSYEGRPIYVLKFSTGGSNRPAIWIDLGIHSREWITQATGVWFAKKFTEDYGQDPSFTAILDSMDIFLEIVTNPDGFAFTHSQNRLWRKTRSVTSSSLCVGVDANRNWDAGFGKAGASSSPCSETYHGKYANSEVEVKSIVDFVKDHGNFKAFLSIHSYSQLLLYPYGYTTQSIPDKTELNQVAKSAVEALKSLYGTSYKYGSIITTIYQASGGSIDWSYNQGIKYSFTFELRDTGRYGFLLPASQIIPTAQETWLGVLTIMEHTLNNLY
Description: Hydrolysis kinetics in carboxypeptidase A solution. The class given is in vitro ADME, bovine. To be noted: 50 mM phosphate buffer pH 7.4, 37° C., carboxypeptidase A 1 U/ml. The method, then:
as §1, §2, §3

A short description of series [1]: Hematological responses after p.o. EMP-1 / EMP-1-K6 in mice. The class given is in vivo. To be noted: male mice, 956 nmol p.o., 4 days after administration. The method, then:
To examine the biological efficacy of peroral (p.o.) treatment with EMP-1 (SEQ ID NO: 117) and EMP-1-K6 (SEQ ID NO: 93), the hematological responses of an equimolar p.o. dose (956 nmol) of EMP-1 (2 mg) and EMP-1-K6 (SEQ ID NO: 93) (2.56 mg) were examined in male mice (n=8/group). To examine the time course of the hematological responses, a 10 μl venous blood sample was collected from the retroorbital plexus on days 0, 2, and 4. Body weight (BW) and the plasma concentration of hemoglobin (P-Hgb), the hematocrit value (Hct), the red blood cell count (RBC), and the mean cell hemoglobin concentration (MCHC) were determined before (Day 0), and 2 and 4 days after administration of EMP-1 (SEQ ID NO: 117) or EMP-1- K6 (SEQ ID NO: 93).

The test system of another series is vas deferens. To be noted: read-out: EC50 value; half maximal inhibition of electrically-induced contraction, mouse vas deferens. The method, then:
(§4) In short: vasa deferentia were isolated from male mice weighing 20-30 g (Mellegaard breeding, DK) and suspended through two electrodes in 10 ml baths at resting tension of 1 g. […] The tissues were stimulated electrically (70 V, 1 ms duration; 0.1 Hz) and contractions were recorded isometrically on a chart recorder. After equilibration of the tissue for at least 20 min, drugs were added in the bath and the maximum effects were measured.
Prior to addition of the plasma sample, a standard dose-response curve was generated in each preparation in order to express the inhibitory activity as concentration of each test substance. Thus, the calculated concentration is a reflection of inhibitory activity in the vas deferens bioassay preparation.
Where initial=initial […] contraction force prior to addition of test substance; conc=concentration of test substance; EC50=concentration of test substance that […] produced half maximal inhibition of electrically-induced contraction; background=contraction force during maximal relaxation.

The nature of series [2]: Bioavailability in mice: functional activity in serum after p.o. or i.v. dosing (vas deferens bioassay). The note with it: 30 min. The method, then:
Blood samples were centrifuged immediately (3000 g, 4° C.) and serum was isolated and used for activity determination.
as §4

On to `CC(C)C[C@@H]1NC(=O)[C@@H]2CCCN2C(=O)CNC(=O)[C@H](Cc2ccccc2)NC(=O)[C@H](Cc2c[nH]cn2)NC(=O)[C@@H](NC(=O)[C@H](CO)NC(=O)[C@H](Cc2ccc(O)cc2)NC(=O)[C@@H](NC(=O)CNC(=O)CN)[C@@H](C)O)CSSC[C@@H](C(=O)N[C@@H](CCCCN)C(=O)N2CCC[C@H]2C(=O)N[C@@H](CCC(N)=O)C(=O)NCC(=O)NCC(=O)N[C@@H](CCCCN)C(=O)N[C@@H](CCCCN)C(=O)N[C@@H](CCCCN)C(=O)N[C@@H](CCCCN)C(=O)N[C@@H](CCCCN)C(=O)N[C@@H](CCCCN)C(=O)O)NC(=O)[C@H](C(C)C)NC(=O)[C@H](Cc2c[nH]c3ccccc23)NC(=O)[C@H]([C@@H](C)O)NC1=O` [EMP-1-(Lys)6-OH, H-Gly-Gly-Thr-Tyr-Ser-Cys-His-Phe-Gly-Pro-Leu-Thr-Trp -Val-Cys-Lys-Pro-Gln-Gly-Gly-LM-OH] (H-GGTYSCHFGPLTWVCKPQGGKKKKKK-OH; disulfide 6-15), for which the half-life on leucine aminopeptidase was > 100 h. Besides, the half-life on carboxypeptidase A is > 20 h. Also, in series [1], the “Change in BW” value is recorded as 3.4 ± 0.3 g, the “Change in Hematocrit” value was found to be 4.5 ± 0.9 %, the “Change in MCHC” value was found to be 0.2 ± 1.5 mM and the “Change in P-hgb” value is on record as “+2.4 ± 0.3 mM”. In addition, in series [1], the “Change in RBC” value is given as 1.0 ± 0.1* 10^12 cells/1, the “Relative change in BW” value is recorded as “(15 ± 2%)”, the “Relative change in Hematocrit” value is given as “(12.3 ± 2.3%*)” and the “Relative change in MCHC” value was “(0 ± 2%)”. For the same molecule, in series [1], the “Relative change in P-hgb” value is “(+15 ± 2%*)” and the “Relative change in RBC” value is “(17 ± 2%*)”.

For the molecule `CC(C)C[C@@H]1NC(=O)[C@@H]2CCCN2C(=O)CNC(=O)[C@H](Cc2ccccc2)NC(=O)[C@H](Cc2c[nH]cn2)NC(=O)[C@@H](NC(=O)[C@H](CO)NC(=O)[C@H](Cc2ccc(O)cc2)NC(=O)[C@@H](NC(=O)CNC(=O)CN)[C@@H](C)O)CSSC[C@@H](C(=O)N[C@@H](CCCCN)C(=O)N2CCC[C@H]2C(=O)N[C@@H](CCC(N)=O)C(=O)NCC(=O)NCC(=O)O)NC(=O)[C@H](C(C)C)NC(=O)[C@H](Cc2c[nH]c3ccccc23)NC(=O)[C@H]([C@@H](C)O)NC1=O` [EMP-1-OH, H-GIy-Gly-Thr-Tyr-Ser-Cys-His-Phe-Gly-Pro-Leu-Thr-Trp -Val-Cys-Lys-Pro-Gln-Gly-GIy-OH, reference compound] (H-GGTYSCHFGPLTWVCKPQGG-OH; disulfide 6-15), at leucine aminopeptidase, the “pseudo first-order rate constant for the degradation” value (from here on “pseudo first-order rate constant”) came to 0.0015 min⁻¹ and the half-life came out at 7.7 h. Further, on carboxypeptidase A, the half-life was > 50 h. Further, in series [1], the “Change in BW” value is listed as 3.4 ± 0.2 g, the “Change in Hematocrit” value was determined as 0.3 ± 0.8%, the “Change in MCHC” value is recorded as 2.9 ± 1.5 mM and the “Change in P-hgb” value is “+1.5 ± 0.5 mM”. In series [1], the “Change in RBC” value is recorded as 0.6 ± 0.2 10^12 cells/1, the “Relative change in BW” value is reported as “(16 ± 1%)”, the “Relative change in Hematocrit” value is reported as “(0.8 ± 1.8%)” and the “Relative change in MCHC” value was “(4 ± 2%)”. In series [1], the “Relative change in P-hgb” value is recorded as “(+8 ± 1%)” and the “Relative change in RBC” value is on record as “(9 ± 3%)”.

On to `CC(C)C[C@H](NC(=O)[C@H](Cc1ccccc1)NC(=O)CNC(=O)CNC(=O)[C@@H](N)Cc1ccc(O)cc1)C(=O)N[C@@H](CCCN)C(=O)N[C@@H](CCCN)C(=O)N[C@@H](CCCN)C(=O)N[C@@H](CCCN)C(=O)N[C@@H](CCCN)C(=O)N[C@@H](CCCN)C(=O)O` [Leu-Enkephalin-(Orn)6-OH, H-Tyr-Gly-Gly-Phe-Leu-(Orn)6-OH] (H-YGGFL[Orn][Orn][Orn][Orn][Orn][Orn]-OH), for which, on leucine aminopeptidase, the “pseudo first-order rate constant” value turned out to be 0.0064 min⁻¹ and the half-life is 1.8 h. Also, the half-life on carboxypeptidase A was > 100 h. In addition, the EC50 in the series on vas deferens is > 20000 nM.

As for `CC(C)C[C@H](NC(=O)[C@H](Cc1ccccc1)NC(=O)CNC(=O)CNC(=O)[C@@H](N)Cc1ccc(O)cc1)C(=O)O` [Leu-Enkephalin-OH, H-Tyr-Gly-Gly-Phe-Leu-OH, reference compound], the “pseudo first-order rate constant” value came out at 0.68 min⁻¹ on leucine aminopeptidase and 0.98 min⁻¹ on carboxypeptidase A. The half-life at leucine aminopeptidase turned out to be 0.0167 h; at carboxypeptidase A (cattle, carboxypeptidase A solution (1 U/ml) in phosphate buffer), 0.0117 h. Moreover, the “Functional activity in serum” value in series [2] (50 mg/kg i.v.) and in series [2] (50 mg/kg p.o.) was “no activity was detected” each time. Moreover, the EC50 with vas deferens was 65 nM.

Turning to “H-YGGFLKKEEEK-OH [Leu-Enkephalin-(Lys2-Glu3-Lys)-OH, H-Tyr-Gly-Gly-Phe-Leu-Lys-Lys-Glu-Glu-Glu-Lys-OH]”, the EC50 in the series with vas deferens came out at 680 nM.

For “YGGFLKEKEKE [Leu-Enkephalin-(Lys-Glu)3-OH]”, the EC50 in the series with vas deferens amounted to 350 nM.

As for “YGGFLKKKKKKKKKK [Leu-Enkephalin-(Lys)10-OH, H-Tyr-Gly-Gly-Phe-Leu-Lys10-OH]”, the half-life on leucine aminopeptidase is > 100 h. Also, on carboxypeptidase A, the half-life was determined as 38.5 h and the “pseudo first-order rate constant” value worked out at 0.0003 min⁻¹. Also, in the series on vas deferens, the EC50 stood at 2500 nM.
